Test results published in patent publication US11608324B2, “Solid forms of fasoracetam” (The Children's Hospital of Philadelphia, priority 2018, dated 2023).

Tests used:
[1] = tested on: metabotropic glutamate receptor (mGluR), all classes; conditions: Hirouchi M, et al. (2000); WO2017/044491; cited from earlier work
[2] = subjects having a genetic alteration in an mGluR network gene; cited from earlier work
[3] = Hygroscopicity (statement); format: physicochemical
[4] = Thermogravimetric analysis (TGA), thermal stability; format: physicochemical
Experimental: TGA measurements were carried out on a METTLER TOLEDO TGA/SDTA 851e. Samples were placed in open aluminum oxide crucible. All experiments were performed under nitrogen flow.
A TGA plot can be found at FIG. 6. The sample was equilibrated at 30.0° C. for five minutes prior to ramping. A heating rate of 5° C. per minute was used from 30.0° C. to 350.0° C. No significant weight loss was observed until temperatures greater than 180° C. were recorded.

[5] = Solubility curve in ethyl acetate (Crystal16); format: physicochemical; conditions: FIG. 10
Text: FIG. 7 is the x-ray powder diffraction of the R-fasoracetam monohydrate Form I starting material used in this Example 1, and FIG. 8 is the corresponding DSC thermogram of that starting material. A solubility curve was constructed for the cocrystal in ethyl acetate with the results plotted in FIG. 10 (from the data collected in Example 1) using a Crystal16 device from Technobis Crystallization Systems. The samples were created from the cocrystal without adding any additional water or other constituents. The samples were heated at a rate of 1°/15 minutes.

SMILES: O=C1CC[C@H](C(=O)N2CCCCC2)N1 [fasoracetam]
- activity against mGluRs in vitro [1]: nonselective activator against all classes of mGluRs
- treatment outcome in ADHD [2]: successfully treated

SMILES: O=C1CC[C@H](C(=O)N2CCCCC2)N1 [R-fasoracetam anhydrate]
- hygroscopicity [3]: hygroscopic

SMILES: Nc1ccc(C(=O)O)cc1.O=C1CC[C@H](C(=O)N2CCCCC2)N1 [R-fasoracetam:PABA cocrystal]
- thermal stability by TGA, stable up to ([4]; TGA, FIG. 6): about 200 °C
- temperature until which no significant weight loss was observed (TGA) ([4]; heating rate 5° C. per minute from 30.0° C. to 350.0° C.): greater than 180 °C
- solubility as compared with R-fasoracetam monohydrate Form I [5]: approximately three-fold lower
